Measurements: patent publication EP0364819A2, “LHRH analogs” (The Administrators of The Tulane Educational Fund, priority 1988, dated 1990)

Assays:
[1] = test system: membrane receptors of human prostate cancer; assay: Receptor binding to human prostate cancer membranes with 125I-labeled [D-Trp6]LHRH; details: first receptor class (high affinity binding sites)
Procedure: (§1) (c)Affinity for peptides to human prostate and breast cancer cell membranes.
(§2) This is determined by using labelled LHRH and [D-Trp⁶]LHRH. The assay is carried out similarly to that described by T. Kadar et al., Proc. Natl. Acad. Sci. USA, 85, 890-894 (1988).

[2] = test system: membrane receptors of Dunning tumor; assay: Receptor binding to Dunning tumor membranes with 125I-labeled [D-Trp6]LHRH; details: first receptor class (high affinity binding sites); rat Dunning tumor
Procedure: as §2

[3] = molecular target: T1, membrane receptors of rat pituitary (Rattus norvegicus, UniProt P30969); assay: Receptor binding to rat pituitary membranes with 125I-labeled [D-Trp6]LHRH; details: Table 2, antagonistic analogues; high affinity binding sites; pituitary of male rats; ¹²⁵l-labeled [D-Trp⁶]LHRH
T1 construct: membrane receptors of rat pituitary; from tissue; host or cells: rat pituitary membranes
T1 sequence (P30969 1-327): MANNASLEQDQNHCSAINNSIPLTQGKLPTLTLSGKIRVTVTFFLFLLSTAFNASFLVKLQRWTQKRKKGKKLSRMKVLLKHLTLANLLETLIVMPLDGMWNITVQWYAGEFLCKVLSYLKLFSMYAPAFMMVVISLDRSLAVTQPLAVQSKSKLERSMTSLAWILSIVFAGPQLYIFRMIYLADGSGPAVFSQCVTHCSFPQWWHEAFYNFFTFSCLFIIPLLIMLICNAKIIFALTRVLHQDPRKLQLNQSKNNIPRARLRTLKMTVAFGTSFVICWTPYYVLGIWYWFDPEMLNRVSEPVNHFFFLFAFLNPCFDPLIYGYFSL
Procedure: as §2
(§3) Table 2 presents the antiovulatory activity of the claimed compounds having LHRH-inhibiting properties. The inhibitory action was determined in vivo, in 4-day cycling rats as described [A. Corbin and C. W. Beattie, Endocr. Res. Commun., 2, 1-23 (1975)]. Affinities of the claimed compounds to membrane receptors of rat pituitary and human breast cancer cells are also given in Tables 1 and 2 as determined by using [[…],D-Trp⁶]LHRH.

[4] = molecular target: T2, membrane receptors of human breast cancer cells (Homo sapiens, UniProt P30968); assay: Receptor binding to human breast cancer cell membranes with 125I-labeled [D-Trp6]LHRH; details: Table 2, antagonistic analogues, high affinity binding sites, ¹²⁵l-labeled [D-Trp⁶]LHRH
T2 construct: human prostate and breast cancer cell membranes; endogenous in cells
T2 sequence (P30968 1-328): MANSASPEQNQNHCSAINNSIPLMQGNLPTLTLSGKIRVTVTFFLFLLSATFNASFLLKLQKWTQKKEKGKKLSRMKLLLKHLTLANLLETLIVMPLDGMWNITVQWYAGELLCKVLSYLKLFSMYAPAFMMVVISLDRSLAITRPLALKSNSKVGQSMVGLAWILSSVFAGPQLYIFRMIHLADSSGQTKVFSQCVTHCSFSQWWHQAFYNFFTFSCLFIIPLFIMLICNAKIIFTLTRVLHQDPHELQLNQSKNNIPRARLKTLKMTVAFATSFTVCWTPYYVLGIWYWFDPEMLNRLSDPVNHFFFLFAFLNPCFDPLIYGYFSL
Procedure: as §1, §2, §3

4-day cycling rats = assay: In vivo antiovulatory activity in 4-day cycling rats; details: 4-day cyclic rats
Procedure: This activity of the peptides is determined in 4-day-cycling rats as described [A. Corbin and C. W.Beattie, Endocr. Res. Commun. 2, 1-23(1975)].
as §3

[5] = prior art analogues with Chlorambucil as cytotoxic moiety; cited from earlier work

Compound | Binding affinity, Ka1, for membrane receptors of pituitary [3] [nM-¹] | Binding affinity, Ka1, for membrane receptors of cancer cells [4] [nM-¹] | activities (LHRH agonist or antagonist) [5] | other results
CC(C)C[C@H](NC(=O)[C@@H](Cc1c[nH]c2ccccc12)NC(=O)[C@H](Cc1ccc(O)cc1)NC(=O)[C@H](CO)NC(=O)[C@H](Cc1c[nH]c2ccccc12)NC(=O)[C@H](Cc1c[nH]cn1)NC(=O)[C@@H]1CCC(=O)N1)C(=O)N[C@@H](CCCNC(=N)N)C(=O)N1CCC[C@H]1C(=O)NCC(N)=O [[D-Trp⁶]-LHRH, reference compound] |  |  |  | Human prostate cancer* Ka1 [1]: 0.04 nM⁻¹; Dunning tumor* Ka1 [2]: 1.87 nM⁻¹
Ac-D-Nal(2)-D-Phe(4Cl)-D-Pal(3)-Ser-Arg-D-Mel-Leu-Arg-Pro-D-Ala-NH₂ [Example II] | 7.190 | 3.967 |  | Human prostate cancer* Ka1 [1]: 0.7 nM⁻¹; Dunning tumor* Ka1 [2]: 1.68 nM⁻¹
Ac-D-Nal(2)-D-Phe(4Cl)-D-Trp-Ser-Arg-D-Lys[(Cu⁺⁺)(POLP)₂(DL-A₂pr)]-Leu-Arg-Pro-D-Ala-NH₂ [Example XXII] | 2.901 | 1.337 |  | Hormonal activity* %Blockade of ovulation (4-day cycling rats; Dose 10 µg/rat): 60%
[Chlorambucil-D-Leu²,D-Leu³,D-Ala⁶]LHRH (2-10) |  |  | moderate activities | 
[Chlorambucil-D-Phe¹,D-Phe²,D-Trp³ʼ⁶]LHRH |  |  | practically inactive | 
[D-Lys(Chlorambucil)⁶] LHRH |  |  | moderate activities | 

Further lines, with some results ahead:

Binding affinity, Ka1, for membrane receptors of pituitary [3] [nM-¹] | Binding affinity, Ka1, for membrane receptors of cancer cells [4] [nM-¹] | Compound | activities (LHRH agonist or antagonist) [5] | other results
9.183 | 4.951 | Ac-D-Nal(2)-D-Phe(4Cl)-D-Trp-Ser-Arg-D-Lys[(Cu⁺⁺)(SAL)₂(DL-A₂pr)]-Leu-Arg-Pro-D-Ala-NH₂ [XII] |  | Hormonal activity* %Blockade of ovulation (4-day cycling rats; Dose 3 µg/rat): 20%
8.676 | 4.418 | Ac-D-Nal(2)-D-Phe(4Cl)-D-Trp-Ser-Arg-D-Lys[(Ni⁺⁺)(SAL)₂(DL-A₂pr)]-Leu-Arg-Pro-D-Ala-NH₂ [Example XV] |  | Hormonal activity* %Blockade of ovulation (4-day cycling rats; Dose 3 µg/rat): 20%
